One test has as its target T1, hSTING-R232 (Homo sapiens, UniProt Q86WV6, H232R).
T1 construct: host or cells: 293-Dual (HEK293-derived) reporter cells
The test can be described thus: ISG reporter induction in 293-Dual hSTING-R232 reporter cells (QUANTI-Blue). Type of test: cell-based. The following applies: 293-Dual hSTING-R232 cells, overnight incubation. The method, then: (§1) Certain STING compounds of the disclosure were evaluated in an in vitro cell based assay.
(§2) 293-Dual hSTING-R232 and mSTING cells (Invivogen) were seeded at 25,000 cells/well (50 ul) and co-cultured with STING agonists (2× concentration, 50 ul) in clear, half-area, 96-well polystyrene plates. Cells and test samples were prepared in DMEM supplemented with 10% FBS, Glutamax, and PenStrep. After overnight incubation at 37 C in a CO2 incubator, 20 ul of supernatant was added to QUANTI-Blue detection reagent (Invivogen). After one hour incubation at 37 C, plates were read at 640/650 nm on EnVision plate reader (PerkinElmer). OD values were plotted by log(agonist) vs. response, variable slope, four parameter curve fit (Log transform) using GraphPad Prism software to determine EC50 values.

The next test addresses T2, mSTING (Mus musculus, UniProt Q3TBT3).
T2 construct: host or cells: 293-Dual (HEK293-derived) reporter cells
T2 sequence (Q3TBT3 1-378): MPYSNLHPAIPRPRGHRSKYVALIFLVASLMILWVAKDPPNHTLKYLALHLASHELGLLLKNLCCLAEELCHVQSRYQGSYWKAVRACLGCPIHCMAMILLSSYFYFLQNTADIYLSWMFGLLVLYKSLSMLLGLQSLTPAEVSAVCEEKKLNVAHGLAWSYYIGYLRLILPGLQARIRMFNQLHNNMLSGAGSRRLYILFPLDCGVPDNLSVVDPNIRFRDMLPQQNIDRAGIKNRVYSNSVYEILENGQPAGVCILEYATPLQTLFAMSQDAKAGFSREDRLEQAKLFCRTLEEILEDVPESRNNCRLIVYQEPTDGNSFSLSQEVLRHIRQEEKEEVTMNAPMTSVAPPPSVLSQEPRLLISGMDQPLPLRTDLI
Nature of the test: ISG reporter induction in 293-Dual mSTING reporter cells (QUANTI-Blue). The note with it: 293-Dual mSTING cells, overnight incubation. In kind it is cell-based. The protocol:
as §1, §2

In a further test the target is hSTING WT (Homo sapiens, UniProt Q86WV6). Nature of the test: Thermal shift assay (DSF). In kind it is binding. Set-up: unit not given here. The note with it: compound at 3.12 uM. From the text: Thermal shift assay experimental methods were followed based on the published methods described in Ramanjulu et al. Nature, 2018, 564, 439.

Results on 22 compounds are retold here after US20250361253A1, “STING AGONIST COMPOUNDS” (Sutro Biopharma, Inc., priority 2022, published 2025).

Molecules are shown by their SMILES. pEC50: −log10 of the molar value. Bounds are passed on as bounds.

The pEC50 is the negative decadic logarithm of the EC50, by convention in mol/L.

T1 sequence (Q86WV6 whole entry H232R): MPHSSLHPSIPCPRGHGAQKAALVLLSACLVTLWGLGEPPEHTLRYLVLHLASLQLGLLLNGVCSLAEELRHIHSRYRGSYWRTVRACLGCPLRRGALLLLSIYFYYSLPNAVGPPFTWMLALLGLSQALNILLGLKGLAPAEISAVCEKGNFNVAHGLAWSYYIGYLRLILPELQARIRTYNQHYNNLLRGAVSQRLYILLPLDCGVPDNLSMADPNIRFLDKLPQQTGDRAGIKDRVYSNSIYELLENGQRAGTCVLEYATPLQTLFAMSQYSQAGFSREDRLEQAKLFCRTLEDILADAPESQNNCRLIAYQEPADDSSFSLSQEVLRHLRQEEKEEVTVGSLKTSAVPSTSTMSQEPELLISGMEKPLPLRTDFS
Sequence of hSTING WT (Q86WV6 155-341 H232R limits assumed): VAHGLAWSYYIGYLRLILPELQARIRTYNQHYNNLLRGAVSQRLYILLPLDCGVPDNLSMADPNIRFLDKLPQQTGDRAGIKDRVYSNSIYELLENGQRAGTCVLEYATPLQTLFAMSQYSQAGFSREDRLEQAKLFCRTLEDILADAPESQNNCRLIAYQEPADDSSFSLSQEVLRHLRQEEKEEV

Turning to `COC(=O)C(C)(C)CC(=O)c1cc2c(F)c(OCCCOc3c(OC)cc4sc(C(=O)CS(=O)(=O)O)cc4c3F)c(OC)cc2s1` [Compound 2, 2-(4-Fluoro-5-(3-((4-fluoro-6-methoxy-2-(4-methoxy-3,3-dimethyl-4-oxobutanoyl)benzo[b]thiophen-5-yl)oxy)propoxy)-6-methoxybenzo[b]thiophen-2-yl)-2-oxoethane-1-sulfonic acid], the results for the pEC50 at hSTING-R232 and on mSTING were less than 6.82 and 6.82 to 7.30, respectively.
For the compound `COC(=O)C(C)(C)CC(=O)c1cc2c(F)c(OCCCOc3c(OC)cc4sc(C(=O)CP(=O)(OC)OC)cc4c3F)c(OC)cc2s1` [Compound 3, Methyl 4-(5-(3-((2-(2-(dimethoxyphosphoryl)acetyl)-4-fluoro-6-methoxybenzo[b]thiophen-5-yl)oxy)propoxy)-4-fluoro-6-methoxybenzo[b]thiophen-2-yl)-2,2-dimethyl-4-oxobutanoate], the negative logarithm of the EC50 (pEC50) at hSTING-R232 and on mSTING was less than 6.82 each time.
As for `COc1cc2sc(C(=O)CC(C)(C)C(=O)O)cc2c(F)c1OCCCOc1c(OC)cc2sc(C(=O)CP(=O)(OC)OC)cc2c1F` [Compound 4, 4-(5-(3-((2-(2-(Dimethoxyphosphoryl)acetyl)-4-fluoro-6-methoxybenzo[b]thiophen-5-yl)oxy)propoxy)-4-fluoro-6-methoxybenzo[b]thiophen-2-yl)-2,2-dimethyl-4-oxobutanoic acid], the negative logarithm of the EC50 (pEC50) on hSTING-R232 is less than 6.82; on mSTING it was 6.82 to 7.30.
On to `COC(=O)C(C)(C)CC(=O)c1cc2c(F)c(OCCCOc3c(OC)cc4sc(C(=O)CP(=O)(O)O)cc4c3F)c(OC)cc2s1` [Compound 5, (2-(4-Fluoro-5-(3-((4-fluoro-6-methoxy-2-(4-methoxy-3,3-dimethyl-4-oxobutanoyl)benzo[b]thiophen-5-yl)oxy)propoxy)-6-methoxybenzo[b]thiophen-2-yl)-2-oxoethyl)phosphonic acid], for which the pEC50 at hSTING-R232 and on mSTING was 6.82 to 7.30 each time. Besides, on hSTING WT, the “hSTING WT DSF (delta TmD @ 3.12 uM)” value is listed as −0.1.
As for `COc1cc2sc(C(=O)CC(C)(C)C(=O)O)cc2c(F)c1OCCCOc1c(OC)cc2sc(C(=O)CC(C)(C)P(=O)(O)O)cc2c1F` [Compound 9, 4-(4-Fluoro-5-(3-((4-fluoro-6-methoxy-2-(3-methyl-3-phosphonobutanoyl)benzo[b]thiophen-5-yl)oxy)propoxy)-6-methoxybenzo[b]thiophen-2-yl)-2,2-dimethyl-4-oxobutanoic acid], the pEC50 on hSTING-R232 and on mSTING was less than 6.82 throughout.
As for `COC(=O)C(C)(C)CC(=O)c1cc2c(F)c(OCCCOc3c(OC)cc4sc(C(=O)CC(C)(C)P(=O)(O)O)cc4c3F)c(OC)cc2s1` [Compound 10], the pEC50 at hSTING-R232 and at mSTING was less than 6.82 in each case.
Turning to `COc1cc2sc(/C=C/CC(=O)O)cc2c(F)c1OCCCOc1c(OC)cc2sc(C(=O)CC(C)(C)C(=O)O)cc2c1F` [Compound 11, (E)-4-(5-(3-((2-(3-carboxy-3-methylbutanoyl)-4-fluoro-6-methoxybenzo[b]thiophen-5-yl)oxy)propoxy)-4-fluoro-6-methoxybenzo[b]thiophen-2-yl)but-3-enoic acid], the pEC50 on hSTING-R232 and on mSTING was not below 7.30 throughout.
In the case of `COc1cc2sc(C(=O)CC(C)(C)C(=O)O)cc2c(F)c1OCCCOc1c(OC)cc2sc(C3CC3CC(=O)O)cc2c1F` (stereo not drawn) [Compound 12, 4-(5-(3-((2-(2-(carboxymethyl)cyclopropyl)-4-fluoro-6-methoxybenzo[b]thiophen-5-yl)oxy)propoxy)-4-fluoro-6-methoxybenzo[b]thiophen-2-yl)-2,2-dimethyl-4-oxobutanoic acid], the values for the pEC50 at hSTING-R232 and on mSTING were less than 6.82 and 6.82 to 7.30, respectively.
Taken in the same sequence, the figures for `COc1cc2sc(C(=O)CC(C)(C)C(=O)O)cc2c(F)c1OCCCOc1ccc2cc(C(=O)CCC(=O)O)ccc2c1` [Compound 13, 4-(5-(3-((6-(3-Carboxypropanoyl)naphthalen-2-yl)oxy)propoxy)-4-fluoro-6-methoxybenzo[b]thiophen-2-yl)-2,2-dimethyl-4-oxobutanoic acid] were 6.82 to 7.30 and 6.82 to 7.30.
For `COc1cc2sc(C(=O)CCS(=O)(=O)O)cc2c(F)c1OCCCOc1c(OC)cc2sc(C(=O)CC(C)(C)C(=O)O)cc2c1F` [Compound 14, 4-(4-fluoro-5-(3-((4-fluoro-6-methoxy-2-(3-sulfopropanoyl)benzo[b]thiophen-5-yl)oxy)propoxy)-6-methoxybenzo[b]thiophen-2-yl)-2,2-dimethyl-4-oxobutanoic acid], in that order: less than 6.82 and not below 7.30.
With `COc1cc2sc(C(=O)CC(C)(C)C(=O)O)cc2c(F)c1OCCCOc1ccc2cc(C(=O)CCC(=O)O)ccc2c1F` [Compound 15, 4-(5-(3-((6-(3-Carboxypropanoyl)-1-fluoronaphthalen-2-yl)oxy)propoxy)-4-fluoro-6-methoxybenzo[b]thiophen-2-yl)-2,2-dimethyl-4-oxobutanoic acid], the negative-log EC50 (pEC50) at hSTING-R232 and on mSTING was less than 6.82 in each case.
In the case of `COc1cc2cc(C(=O)CCC(=O)O)ccc2c(F)c1OCCCOc1c(OC)cc2sc(C(=O)CC(C)(C)C(=O)O)cc2c1F` [Compound 16, 4-(5-(3-((6-(3-Carboxypropanoyl)-1-fluoro-3-methoxynaphthalen-2-yl)oxy)propoxy)-4-fluoro-6-methoxybenzo[b]thiophen-2-yl)-2,2-dimethyl-4-oxobutanoic acid], the negative-log EC50 (pEC50) on hSTING-R232 and at mSTING was less than 6.82 throughout.
`COc1cc2sc(C(=O)CC(C)(C)C(=O)O)cc2c(F)c1OCCCOc1c(OC)cc2sc(C(=O)CC(C)(C)C(=O)NS(=O)(=O)CCN)cc2c1F` [Compound 17, 4-(5-(3-((2-(4-((2-Aminoethyl)sulfonamido)-3,3-dimethyl-4-oxobutanoyl)-4-fluoro-6-methoxybenzo[b]thiophen-5-yl)oxy)propoxy)-4-fluoro-6-methoxybenzo[b]thiophen-2-yl)-2,2-dimethyl-4-oxobutanoic acid]: the pEC50 on hSTING-R232 and at mSTING was less than 6.82 throughout.
Consider `COc1cc2sc(C(=O)CC(C)(C)C(=O)O)cc2c(F)c1OCCCOc1c(OC)cc2sc(C(=O)CC(C)(C)C(=O)NCCN)cc2c1F` [Compound 18], for which the pEC50 at hSTING-R232 and on mSTING was less than 6.82 throughout.
As for `COc1cc2sc(CCP(=O)(O)O)cc2c(F)c1OCCCOc1c(OC)cc2sc(C(=O)CC(C)(C)C(=O)O)cc2c1F` [Compound 19], the pEC50 at hSTING-R232 and on mSTING was less than 6.82 in each case.
Take `COc1cc2sc(C(=O)CCC(=O)O)cc2c(F)c1OCCCOc1c(OC)cc2sc(C(=O)CP(=O)(O)O)cc2c1F` [Compound 20]: the pEC50 on hSTING-R232 and at mSTING was not below 7.30 in each case.
Regarding `COc1cc2sc(C(=O)CCP(=O)(O)O)cc2c(F)c1OCCCOc1c(OC)cc2sc(C(=O)CC(C)(C)C(=O)O)cc2c1F` [Compound 21], the results for the pEC50 at hSTING-R232 and at mSTING were less than 6.82 and not below 7.30, respectively.
Consider `COc1cc2cc(C(=O)CCC(=O)O)ccc2cc1OCCCOc1c(OC)cc2sc(C(=O)CC(C)(C)C(=O)O)cc2c1F` [Compound 22], for which the negative logarithm of the EC50 (pEC50) on hSTING-R232 and at mSTING was less than 6.82 throughout.
Turning to `COc1cc2nc(C(=O)CCC(=O)O)ccc2c(F)c1OCCCOc1c(OC)cc2sc(C(=O)CC(C)(C)C(=O)O)cc2c1F` [Compound 23, 4-(5-(3-((2-(3-Carboxypropanoyl)-5-fluoro-7-methoxyquinolin-6-yl)oxy)propoxy)-4-fluoro-6-methoxybenzo[b]thiophen-2-yl)-2,2-dimethyl-4-oxobutanoic acid], the pEC50 on hSTING-R232 and on mSTING was not below 7.30 each time.
Turning to `COc1cc2sc(/C=C/CC(=O)O)cc2c(F)c1OCCCOc1c(OC)cc2sc(C(=O)CP(=O)(O)O)cc2c1F` [Compound 32], the pEC50 on hSTING-R232 is 6.82 to 7.30; at mSTING, less than 6.82.
For `COc1cc2sc(/C=C/CC(=O)O)cc2c(F)c1OCCCOc1c(OC)cc2sc(/C=C/CC(=O)O)cc2c1F` [Compound 33], the pEC50 on hSTING-R232 and on mSTING was less than 6.82 throughout.
With `COc1cc2sc(C(=O)CC(C)(C)C(=O)O)cc2c(C)c1OCCCOc1c(OC)cc2sc(C(=O)CP(=O)(O)O)cc2c1C` [Compound 34], the pEC50 at hSTING-R232 and on mSTING was less than 6.82 throughout.
